Data from paper PMC10140010 (Investigational New Drugs, 2023).
Several values for one entry are separate records, joined by “and”; a condition that tells them apart may be missing. Equal entries are not always repeated.

How the values were obtained:
JAK2 = JAK2 (Homo sapiens, UniProt O60674); test: Z'-LYTE kinase selectivity; type: biochemical
CaMK2 alpha = CaMK2 alpha (Homo sapiens, UniProt Q9UQM7); test: Z'-LYTE kinase selectivity; type: biochemical
INSR = INSR (Homo sapiens, UniProt P06213); test: Z'-LYTE kinase selectivity; type: biochemical
JNK1 = JNK1 (Homo sapiens, UniProt P45983); test: Z'-LYTE kinase selectivity; type: biochemical
TNIK = TNIK (Homo sapiens, UniProt Q9UKE5); test: Z'-LYTE kinase selectivity; type: biochemical
PDK1 = PDK1 (Homo sapiens, UniProt O15530); test: Z'-LYTE kinase selectivity; type: biochemical; conditions: read-out: IC50 PDK1
TAOK2 = TAOK2 (Homo sapiens, UniProt Q9UL54); test: Z'-LYTE kinase selectivity; type: biochemical
MAP4K4 = MAP4K4 (Homo sapiens, UniProt O95819); test: Z'-LYTE kinase selectivity; type: biochemical
PKA = PKA (Homo sapiens, UniProt P17612); test: Z'-LYTE kinase selectivity; type: biochemical
CDK2 = CDK2 (Homo sapiens, UniProt P24941); test: Z'-LYTE kinase selectivity; type: biochemical
[1] = test system: LU-01-0015 (HIP-ALK) patient derived lung-tumor xenografts; test: LU-01-0015 patient-derived xenograft model (tumor volume, body weight); type: in vivo, BALB/c nude mice; conditions: for Tumor volume Mean: group mean; for Tumor volume: individual mouse, in mm³
Experimental: (§1) Female BALB/c nude mice (4–6 weeks old) were provided by Shanghai Sipple-Bikai Laboratory Animal Co., Ltd. and Beijing Vital River Laboratory Animal Technology Co., Ltd. The mice were housed in a specific pathogen-free environment under a 12 h light/dark cycle, and had free access to sterile animal feed and water.
(§2) PDX and CDX models were used for in vivo studies. Patient-derived tumors tissues were divided into about 30 mm^3 and transplanted into the right dorsal subcutis. Treatment began when the tumor size reached to 200 mm^3. The mice were randomly assignied into the corresponding dosing groups (9 mice in each group). Drugs were deliverd via daily oral for 4 weeks. Tumor size was measured periodically using a digital caliper (Cal Pro, Sylvac, Switzerland), and tumor volume was calculated as 0.5 × length × width^2. For more detailed information, please refer to Supplementary materials. All procedures and protocols of xenograft models were approved by the Institutional Animal Care and Use Committee of WuXi AppTec.
Patient-derived tumor tissue was segmented into small pieces of approximately 20–30 mm^3 and transplanted subcutaneously into the right back of mice. When the tumor volume reached 150-200 mm^3, the mice were randomly divided into corresponding groups (9 mice in each group, female). Administered by gavage once daily for 4 weeks.

DYRK3 = DYRK3 (Homo sapiens, UniProt O43781); test: Z'-LYTE kinase selectivity; type: biochemical
[2] = test system: NCI-H3122 (EML4-ALK) xenograft; test: NCI-H3122 cell line-derived xenograft model (tumor volume, body weight); type: in vivo, BALB/c nude mice; conditions: 5mg/kg PO QD×21; for Tumor volume, individual animals: in mm³
Experimental: as §1, §2
NCI-H3122 cells were re-suspended with 0.9% sodium chloride, and then 6×10^6 cells in 100 μL was inoculated subcutaneously into the right armpit of nude mice to prepare solid tumor models under sterile conditions. […] Groups were gavaged once daily with the base dose of drug for 21 days. The blank control group was given the same volume of vehicle (sterile water) injection according to the same protocol, with the dose volume of 100 μL/10 g.

EPHA2 = EPHA2 (Homo sapiens, UniProt P29317); test: Z'-LYTE kinase selectivity; type: biochemical
GSK3 beta = GSK3 beta (Homo sapiens, UniProt P49841); test: Z'-LYTE kinase selectivity; type: biochemical
ABL = ABL (Homo sapiens, UniProt P00519); test: Z'-LYTE kinase selectivity; type: biochemical
LCK = LCK (Homo sapiens, UniProt P06239); test: Z'-LYTE kinase selectivity; type: biochemical
CK1 alpha = CK1 alpha (Homo sapiens, UniProt P48729); test: Z'-LYTE kinase selectivity; type: biochemical
[3] = 5 mg/kg PO QD×4 W, day 0 after administration
[4] = 5 mg/kg PO QD×4 W, day 7 after administration
[5] = 5 mg/kg PO QD×4 W, day 10 after administration
[6] = 5 mg/kg PO QD×4 W, day 14 after administration
[7] = 5 mg/kg PO QD×4 W, day 17 after administration
[8] = 5 mg/kg PO QD×4 W, day 21 after administration
[9] = 5 mg/kg PO QD×4 W, day 24 after administration
[10] = 5 mg/kg PO QD×4 W, day 27 after administration
[11] = 10 mg/kg PO QD×4 W, day 0 after administration
[12] = 10 mg/kg PO QD×4 W, day 3 after administration
[13] = 10 mg/kg PO QD×4 W, day 7 after administration
[14] = 10 mg/kg PO QD×4 W, day 10 after administration
[15] = 10 mg/kg PO QD×4 W, day 14 after administration
[16] = 10 mg/kg PO QD×4 W, day 17 after administration
[17] = 10 mg/kg PO QD×4 W, day 21 after administration
[18] = 10 mg/kg PO QD×4 W, day 24 after administration
[19] = 10 mg/kg PO QD×4 W, day 27 after administration

TAOK2, sequence (Q9UL54 whole entry): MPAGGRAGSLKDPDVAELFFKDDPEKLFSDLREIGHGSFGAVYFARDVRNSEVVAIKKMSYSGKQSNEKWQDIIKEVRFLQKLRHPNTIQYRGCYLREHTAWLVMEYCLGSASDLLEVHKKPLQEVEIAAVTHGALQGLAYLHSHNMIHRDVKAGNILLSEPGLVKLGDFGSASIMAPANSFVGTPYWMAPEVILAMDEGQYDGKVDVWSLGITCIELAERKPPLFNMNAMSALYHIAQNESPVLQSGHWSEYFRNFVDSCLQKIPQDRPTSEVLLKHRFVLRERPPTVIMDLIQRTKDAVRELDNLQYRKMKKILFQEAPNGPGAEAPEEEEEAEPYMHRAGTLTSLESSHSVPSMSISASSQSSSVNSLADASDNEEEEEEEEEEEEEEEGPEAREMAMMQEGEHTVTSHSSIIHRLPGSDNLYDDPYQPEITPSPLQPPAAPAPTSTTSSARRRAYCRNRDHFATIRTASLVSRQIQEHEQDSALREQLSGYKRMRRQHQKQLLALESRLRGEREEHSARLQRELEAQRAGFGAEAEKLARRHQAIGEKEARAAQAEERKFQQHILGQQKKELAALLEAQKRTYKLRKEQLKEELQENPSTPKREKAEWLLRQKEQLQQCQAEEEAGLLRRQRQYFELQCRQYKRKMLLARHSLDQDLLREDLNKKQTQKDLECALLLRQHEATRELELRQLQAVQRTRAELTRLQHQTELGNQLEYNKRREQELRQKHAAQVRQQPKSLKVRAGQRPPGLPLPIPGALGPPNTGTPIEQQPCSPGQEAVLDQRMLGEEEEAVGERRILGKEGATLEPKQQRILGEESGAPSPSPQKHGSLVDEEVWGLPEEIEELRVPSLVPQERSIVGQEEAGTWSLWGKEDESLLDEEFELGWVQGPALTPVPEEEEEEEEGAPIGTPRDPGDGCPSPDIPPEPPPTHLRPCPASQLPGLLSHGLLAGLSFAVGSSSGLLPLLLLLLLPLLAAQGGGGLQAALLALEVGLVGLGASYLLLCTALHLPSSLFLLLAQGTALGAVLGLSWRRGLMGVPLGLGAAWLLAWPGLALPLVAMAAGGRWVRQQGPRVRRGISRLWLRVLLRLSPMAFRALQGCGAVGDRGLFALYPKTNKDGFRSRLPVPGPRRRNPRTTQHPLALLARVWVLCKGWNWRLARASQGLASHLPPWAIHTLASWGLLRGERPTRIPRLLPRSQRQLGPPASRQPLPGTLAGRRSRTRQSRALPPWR
PDK1, sequence (O15530 whole entry): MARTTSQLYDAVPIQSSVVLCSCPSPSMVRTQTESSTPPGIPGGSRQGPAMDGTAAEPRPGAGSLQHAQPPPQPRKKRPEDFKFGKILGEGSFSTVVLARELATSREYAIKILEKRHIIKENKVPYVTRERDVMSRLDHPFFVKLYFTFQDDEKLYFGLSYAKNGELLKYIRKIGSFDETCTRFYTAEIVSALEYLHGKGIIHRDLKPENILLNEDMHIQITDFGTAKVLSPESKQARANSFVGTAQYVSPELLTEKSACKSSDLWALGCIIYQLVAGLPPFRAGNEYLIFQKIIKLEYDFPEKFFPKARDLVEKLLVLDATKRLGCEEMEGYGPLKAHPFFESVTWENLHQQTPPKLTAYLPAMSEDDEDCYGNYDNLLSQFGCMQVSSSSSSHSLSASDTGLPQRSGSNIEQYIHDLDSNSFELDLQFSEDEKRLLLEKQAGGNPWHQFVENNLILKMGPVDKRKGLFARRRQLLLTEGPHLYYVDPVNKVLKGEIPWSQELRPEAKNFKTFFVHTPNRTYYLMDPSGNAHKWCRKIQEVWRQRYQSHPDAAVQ
DYRK3, sequence (O43781 whole entry): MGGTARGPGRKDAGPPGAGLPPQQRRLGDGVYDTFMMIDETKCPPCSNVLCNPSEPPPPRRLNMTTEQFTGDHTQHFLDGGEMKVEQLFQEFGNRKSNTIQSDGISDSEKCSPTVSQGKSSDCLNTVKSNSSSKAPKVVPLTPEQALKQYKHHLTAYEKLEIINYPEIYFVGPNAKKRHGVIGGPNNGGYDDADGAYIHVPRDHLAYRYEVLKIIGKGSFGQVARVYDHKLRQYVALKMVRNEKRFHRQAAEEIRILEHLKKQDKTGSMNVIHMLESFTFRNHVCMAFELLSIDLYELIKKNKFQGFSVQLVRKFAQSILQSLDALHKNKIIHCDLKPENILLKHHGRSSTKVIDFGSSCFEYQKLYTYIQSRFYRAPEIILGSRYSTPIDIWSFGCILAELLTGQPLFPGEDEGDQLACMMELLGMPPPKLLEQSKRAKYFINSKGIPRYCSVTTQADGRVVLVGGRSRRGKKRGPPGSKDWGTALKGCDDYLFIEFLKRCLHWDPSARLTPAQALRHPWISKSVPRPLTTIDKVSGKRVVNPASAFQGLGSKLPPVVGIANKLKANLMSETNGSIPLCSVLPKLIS
CK1 alpha, sequence (P48729 whole entry): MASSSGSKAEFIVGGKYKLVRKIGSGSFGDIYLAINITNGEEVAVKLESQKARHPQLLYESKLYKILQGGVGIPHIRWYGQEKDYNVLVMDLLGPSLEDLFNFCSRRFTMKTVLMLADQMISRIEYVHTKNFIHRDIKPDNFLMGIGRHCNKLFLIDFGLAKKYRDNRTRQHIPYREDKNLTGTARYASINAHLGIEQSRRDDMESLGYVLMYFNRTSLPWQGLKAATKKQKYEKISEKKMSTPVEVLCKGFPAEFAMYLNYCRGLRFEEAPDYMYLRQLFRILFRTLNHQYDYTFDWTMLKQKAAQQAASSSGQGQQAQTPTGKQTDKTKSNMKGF
ABL, sequence (P00519 whole entry): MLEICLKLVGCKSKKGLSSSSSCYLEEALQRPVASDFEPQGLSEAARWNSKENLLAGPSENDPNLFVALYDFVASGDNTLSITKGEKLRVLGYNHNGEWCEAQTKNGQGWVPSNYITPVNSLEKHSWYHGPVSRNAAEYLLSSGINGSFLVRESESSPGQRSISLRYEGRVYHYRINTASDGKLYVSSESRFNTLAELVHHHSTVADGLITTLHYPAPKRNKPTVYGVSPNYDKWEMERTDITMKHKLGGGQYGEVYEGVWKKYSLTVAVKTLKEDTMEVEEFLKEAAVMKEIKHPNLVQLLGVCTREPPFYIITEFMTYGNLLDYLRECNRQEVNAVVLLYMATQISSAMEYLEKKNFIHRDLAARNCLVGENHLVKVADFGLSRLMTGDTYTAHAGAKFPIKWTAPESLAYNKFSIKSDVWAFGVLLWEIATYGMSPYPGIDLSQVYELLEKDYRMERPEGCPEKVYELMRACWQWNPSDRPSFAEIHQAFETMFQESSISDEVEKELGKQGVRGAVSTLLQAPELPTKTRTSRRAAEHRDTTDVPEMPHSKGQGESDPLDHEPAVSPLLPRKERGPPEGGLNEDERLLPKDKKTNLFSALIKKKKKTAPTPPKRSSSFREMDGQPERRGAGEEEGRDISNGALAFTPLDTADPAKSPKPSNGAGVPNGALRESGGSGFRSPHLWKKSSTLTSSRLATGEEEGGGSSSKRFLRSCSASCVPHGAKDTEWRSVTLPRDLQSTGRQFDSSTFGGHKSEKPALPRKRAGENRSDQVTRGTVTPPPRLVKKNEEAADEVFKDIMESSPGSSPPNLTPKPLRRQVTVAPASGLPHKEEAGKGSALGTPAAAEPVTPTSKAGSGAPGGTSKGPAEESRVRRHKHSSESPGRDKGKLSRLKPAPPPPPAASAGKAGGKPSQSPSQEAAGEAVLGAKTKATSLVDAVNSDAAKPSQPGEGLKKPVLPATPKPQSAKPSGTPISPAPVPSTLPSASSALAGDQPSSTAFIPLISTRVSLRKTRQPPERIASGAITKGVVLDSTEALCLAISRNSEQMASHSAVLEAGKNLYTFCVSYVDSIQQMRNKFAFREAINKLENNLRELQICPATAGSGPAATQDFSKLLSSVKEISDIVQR
GSK3 beta, sequence (P49841 whole entry): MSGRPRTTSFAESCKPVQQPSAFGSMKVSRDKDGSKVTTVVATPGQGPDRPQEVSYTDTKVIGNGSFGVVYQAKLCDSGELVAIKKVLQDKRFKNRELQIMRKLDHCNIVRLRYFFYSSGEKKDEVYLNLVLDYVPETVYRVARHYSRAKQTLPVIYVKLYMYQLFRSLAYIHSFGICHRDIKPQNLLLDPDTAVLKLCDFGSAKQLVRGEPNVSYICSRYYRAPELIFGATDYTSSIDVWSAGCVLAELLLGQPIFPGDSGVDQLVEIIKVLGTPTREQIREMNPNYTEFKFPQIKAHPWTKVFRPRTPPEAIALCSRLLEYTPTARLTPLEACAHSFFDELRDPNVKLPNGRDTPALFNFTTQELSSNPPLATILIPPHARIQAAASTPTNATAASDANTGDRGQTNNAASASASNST
LCK, sequence (P06239 whole entry): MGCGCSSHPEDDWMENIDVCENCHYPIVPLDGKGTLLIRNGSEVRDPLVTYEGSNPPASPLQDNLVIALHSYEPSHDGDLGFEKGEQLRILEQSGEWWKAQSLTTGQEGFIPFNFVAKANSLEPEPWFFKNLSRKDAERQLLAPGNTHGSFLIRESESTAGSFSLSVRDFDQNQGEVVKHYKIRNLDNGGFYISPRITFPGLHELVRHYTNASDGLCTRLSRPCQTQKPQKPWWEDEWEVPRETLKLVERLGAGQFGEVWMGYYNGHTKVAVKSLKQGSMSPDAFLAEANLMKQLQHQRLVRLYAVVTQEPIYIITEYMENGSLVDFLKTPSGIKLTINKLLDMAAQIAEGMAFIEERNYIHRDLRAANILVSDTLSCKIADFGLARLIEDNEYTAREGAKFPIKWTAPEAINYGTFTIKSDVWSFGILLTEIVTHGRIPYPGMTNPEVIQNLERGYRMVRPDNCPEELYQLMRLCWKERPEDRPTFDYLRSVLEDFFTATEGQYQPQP

## COc1cc(N2CCC(N3CCN(C)CC3)CC2)ccc1Nc1ncc(Cl)c(Nc2ccccc2P(C)(C)=O)n1 [Brigatinib, reference compound]
JAK2
  IC50: 680 ± 47 nM
CaMK2 alpha
  IC50: 319 ± 13 nM
INSR
  IC50: 626 ± 304 nM
JNK1
  IC50: 1520 ± 733 nM
TNIK
  IC50: 2370 ± 1330 nM
PDK1
  IC50: > 10000 nM
TAOK2
  IC50: 964 ± 48 nM
MAP4K4
  IC50: 1680 ± 762 nM
PKA
  IC50: > 10000 nM
CDK2
  IC50: 1510 ± 554 nM
[1]; [3]
  Tumor volume Mean: 153 mm³
  Tumor volume: 189 and 117 and 124
[1]; 5 mg/kg PO QD×4 W, day 3 after administration
  Tumor volume: 172 and 123 and 114
[1]; [4]
  Tumor volume Mean: 146 mm³
  Tumor volume: 149 and 98
[1]; [5]
  Tumor volume Mean: 122 mm³
  Tumor volume: 128 and 67
[1]; [6]
  Tumor volume Mean: 123 mm³
  Tumor volume: 154 and 64
[1]; [7]
  Tumor volume Mean: 146 mm³
  Tumor volume: 177 and 96
[1]; [8]
  Tumor volume Mean: 162 mm³
  Tumor volume: 138 and 255
[1]; [9]
  Tumor volume Mean: 148 mm³
  Tumor volume: 122 and 117
[1]; [10]
  Tumor volume Mean: 157 mm³
  Tumor volume: 113 and 101 and 56
[1]; [11]
  Tumor volume Mean: 149 mm³
  Tumor volume: 229 and 201 and 134 and 173 and 152 and 164 and 80 and 99 and 111
[1]; [12]
  Tumor volume Mean: 141 mm³
  Tumor volume: 206 and 208 and 136 and 143 and 125 and 137 and 82 and 123 and 106
[1]; [13]
  Tumor volume Mean: 123 mm³
  Tumor volume: 195 and 180 and 121 and 110 and 74 and 78 and 152 and 89
[1]; [14]
  Tumor volume Mean: 114 mm³
  Tumor volume: 236 and 171 and 101 and 97 and 63 and 85 and 89 and 106 and 80
[1]; [15]
  Tumor volume Mean: 108 mm³
  Tumor volume: 204 and 172 and 98 and 118 and 60 and 84 and 74 and 89 and 71
[1]; [16]
  Tumor volume Mean: 133 mm³
  Tumor volume: 239 and 176 and 118 and 196 and 66 and 106 and 97 and 89
[1]; [17]
  Tumor volume Mean: 133 mm³
  Tumor volume: 247 and 182 and 156 and 187 and 61 and 96 and 111 and 68 and 85
[1]; [18]
  Tumor volume Mean: 136 mm³
  Tumor volume: 262 and 186 and 98 and 210 and 62 and 101 and 137 and 102 and 70
[1]; [19]
  Tumor volume Mean: 152 mm³
  Tumor volume: 332 and 197 and 131 and 249 and 47 and 95 and 163 and 85 and 70
[1]; LU-01-0015 and NCI-H3122 xenograft models, all P < 0.05
  tumor growth inhibition: able to inhibit tumor growth
[1]; nude mouse xenograft models (LU-01-0015, NCI-H3122), all P ≥ 0.05
  effect on body weight: no effect
DYRK3
  IC50: > 10000 nM
[2]; day 0 after administration
  Tumor volume Mean: 174 mm³
  Tumor volume, individual animals: 116 and 221 and 152 and 134 and 154 and 194 and 207 and 229
[2]; day 3 after administration
  Tumor volume Mean: 252 mm³
  Tumor volume, individual animals: 235 and 195 and 320 and 239 and 193 and 260 and 247 and 262 and 319
[2]; day 6 after administration
  Tumor volume Mean: 352 mm³
  Tumor volume, individual animals: 344 and 246 and 444 and 301 and 248 and 364 and 372 and 370 and 474
[2]; day 9 after administration
  Tumor volume Mean: 461 mm³
  Tumor volume, individual animals: 473 and 337 and 548 and 418 and 289 and 518 and 482 and 535 and 555
[2]; day 13 after administration
  Tumor volume Mean: 502 mm³
  Tumor volume, individual animals: 454 and 241 and 654 and 480 and 315 and 575 and 637 and 495 and 666
[2]; day 16 after administration
  Tumor volume Mean: 547 mm³
  Tumor volume, individual animals: 521 and 320 and 707 and 541 and 350 and 627 and 656 and 464 and 737
[2]; day 20 after administration
  Tumor volume Mean: 612 mm³
  Tumor volume, individual animals: 710 and 414 and 729 and 637 and 412 and 711 and 707 and 501 and 687
EPHA2
  IC50: > 10000 nM
GSK3 beta
  IC50: > 10000 nM
ABL
  IC50: 596 ± 52 nM
LCK
  IC50: 444 ± 84 nM
CK1 alpha
  IC50: > 10000 nM
